This note sets out measurements from ChEMBL document CHEMBL1201862, “PubChem BioAssay data set” (2004).

SMILES strings stand for the structures.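 Compound exposure: 48 hours, 5 concentrations, 96-well plates. GI50 marks 50% less growth.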 Activity calls are given as the source filed them. No stated cut-off is given here; in the data, active = GI50 up to about 1.1 µM and inactive = higher. Where only a bound is given, the exact number is not on record here.

Some test systems named below: NCI-H23; U-251; IGROV-1; MOLT-4; SNB-19; 786-0; NCI-H460; UACC-62; RXF 393; OVCAR-4; HT-29; SN12C; NCI-H226; HCC 2998; LOX IMVI; NCI-H522; NCI/ADR-RES; HL-60; A498.
Common to all, as to test: NCI-60 cell line screen, 48 h

`CN1CCN(CCCCNc2cc3c4ccccc4c(NCCCCN4CCN(C)CC4)cc3c3ccccc23)CC1`: the GI50 was 2.09 µM (inactive) in the experiment on NCI-H23; 1.68 µM (inactive) with U-251; 1.93 µM (inactive) with IGROV-1; 0.41 µM (active) with MOLT-4; 4.49 µM (inactive) with SNB-19; 1.63 µM (inactive) in the experiment on 786-0. For the same molecule, the GI50 was 1.53 µM (inactive) in the experiment on NCI-H460; 2.28 µM (inactive) in the experiment on UACC-62; 1.41 µM (inactive) in the experiment on RXF 393; 1.36 µM (inactive) in the experiment on OVCAR-4; 1.95 µM (inactive) in the experiment on HT-29; 2.61 µM (inactive) in the experiment with SN12C. Moreover, the GI50 in the experiment with NCI-H226 was 13.4 µM (inactive); in the experiment on HCC 2998 it was 1.81 µM (inactive); in the experiment on LOX IMVI it was 0.962 µM (active); in the experiment on NCI-H522 it was 1.93 µM (inactive); in the experiment with NCI/ADR-RES, 2.47 µM (inactive); with HL-60 it was 4.03 µM (inactive). Further, the GI50 with A498 is 12 µM (inactive).

`COc1cccc(/C=C/c2ccnc3ccccc23)c1OC`: the GI50 was 9.66 µM (inactive) in the experiment with NCI-H23; > 10 µM (inactive) in the experiment with U-251; > 10 µM (inactive) in the experiment with IGROV-1; 3.89 µM (inactive) in the experiment with MOLT-4; > 10 µM (inactive) in the experiment with SNB-19; > 10 µM (inactive) in the experiment with 786-0. Also, the GI50 is > 10 µM (inactive) in the experiment with NCI-H460; > 10 µM (inactive) in the experiment on UACC-62; > 10 µM (inactive) in the experiment with RXF 393; > 10 µM (inactive) in the experiment with OVCAR-4; 9.86 µM (inactive) in the experiment on HT-29; > 10 µM (inactive) in the experiment on SN12C. Besides, the GI50 was > 10 µM (inactive) in the experiment on NCI-H226; > 10 µM (inactive) in the experiment with HCC 2998; 4.79 µM (inactive) in the experiment with LOX IMVI; > 10 µM (inactive) in the experiment with NCI-H522; 2.67 µM (inactive) in the experiment on NCI/ADR-RES; > 10 µM (inactive) in the experiment on HL-60. Also, the GI50 in the experiment with A498 is > 10 µM (inactive).

As for `Oc1ccc(Nc2nc(Cl)c3nc[nH]c3n2)cc1`, the GI50 in the experiment on NCI-H23 was > 100 µM (inactive); in the experiment with U-251, > 100 µM (inactive); in the experiment on IGROV-1, 67.6 µM (inactive); in the experiment with MOLT-4, > 100 µM (inactive); in the experiment on SNB-19, > 100 µM (inactive); in the experiment with 786-0, > 100 µM (inactive). In addition, the GI50 in the experiment with NCI-H460, with UACC-62, with RXF 393, in the experiment with OVCAR-4, with HT-29 and in the experiment with SN12C was > 100 µM (inactive) throughout. Besides, the GI50 with NCI-H226 is > 100 µM (inactive); with HCC 2998 it was > 100 µM (inactive); with LOX IMVI, 63.5 µM (inactive); in the experiment on NCI-H522, > 100 µM (inactive); in the experiment with NCI/ADR-RES it was > 100 µM (inactive); in the experiment on HL-60 it was 34.5 µM (inactive). In addition, the GI50 in the experiment with A498 was > 100 µM (inactive).

With `CC(NC1=NCCO1)c1ccsc1` (stereo not given), the GI50 is 64.4 µM (inactive) in the experiment with NCI-H23; 18.2 µM (inactive) with U-251; 34.8 µM (inactive) in the experiment on IGROV-1; 22.7 µM (inactive) in the experiment on MOLT-4; 37.3 µM (inactive) in the experiment on SNB-19; 18.8 µM (inactive) in the experiment on 786-0. Moreover, the GI50 is 10.9 µM (inactive) with NCI-H460; 17.6 µM (inactive) with UACC-62; 33.5 µM (inactive) with RXF 393; 24.9 µM (inactive) in the experiment on OVCAR-4; 15.2 µM (inactive) with HT-29; 58.1 µM (inactive) with NCI-H226. Also, the GI50 with HCC 2998 is 69.3 µM (inactive); in the experiment on LOX IMVI, 20.3 µM (inactive); in the experiment on NCI-H522, 17.7 µM (inactive); in the experiment on NCI/ADR-RES, > 100 µM (inactive); in the experiment with HL-60, 21.5 µM (inactive); in the experiment with A498 it was > 100 µM (inactive).

On to `O=C(CCCCCC(=O)N1CC(CCl)c2ccc([N+](=O)[O-])cc21)N1CC(CCl)c2ccc([N+](=O)[O-])cc21` (stereo not given), for which the GI50 in the experiment on NCI-H23, with U-251, in the experiment with IGROV-1, in the experiment on MOLT-4, in the experiment on SNB-19 and with 786-0 was > 100 µM (inactive) throughout. Moreover, the GI50 in the experiment on NCI-H460 was 34 µM (inactive); in the experiment on UACC-62, > 100 µM (inactive); in the experiment on RXF 393, > 100 µM (inactive); in the experiment with OVCAR-4, > 100 µM (inactive); in the experiment with SN12C, > 100 µM (inactive); in the experiment on NCI-H226, > 100 µM (inactive). Moreover, the GI50 with HCC 2998 was 23.7 µM (inactive); in the experiment with LOX IMVI it was > 100 µM (inactive); with NCI-H522 it was > 100 µM (inactive); in the experiment on NCI/ADR-RES it was > 100 µM (inactive); in the experiment on HL-60 it was 75.3 µM (inactive); in the experiment with A498 it was 87.1 µM (inactive).

For `O=C(O)[C@H]1NC[C@@H]2ON=C(Br)[C@@H]21`, the GI50 in the experiment with NCI-H23, in the experiment with U-251, in the experiment with IGROV-1, with MOLT-4, in the experiment with SNB-19 and in the experiment with 786-0 was > 100 µM (inactive) throughout. Moreover, the GI50 in the experiment with NCI-H460, with UACC-62, in the experiment with RXF 393, in the experiment on OVCAR-4, with HT-29 and in the experiment with SN12C was > 100 µM (inactive) throughout. Further, the GI50 in the experiment on NCI-H226, in the experiment on HCC 2998, in the experiment with LOX IMVI, in the experiment with NCI-H522, with NCI/ADR-RES and in the experiment on HL-60 was > 100 µM (inactive) in each case. Besides, the GI50 with A498 is > 100 µM (inactive).

On to `C=C(C)[C@H]1CC[C@@]23O[C@@H]2[C@@H](C[C@@]2(C)CC(=O)[C@H](CC(=O)C1)O2)OC(=O)[C@@]12CC[C@H](C(=C)C)CC(=O)C[C@H]4O[C@](C)(CC4=O)C[C@@H](OC3=O)[C@@H]1O2` [SINGARDIN], for which the GI50 in the experiment with NCI-H23 is > 100 µM (inactive); with U-251, > 100 µM (inactive); in the experiment with IGROV-1, 52.8 µM (inactive); in the experiment with MOLT-4, > 100 µM (inactive); in the experiment with SNB-19, > 100 µM (inactive); with 786-0, > 100 µM (inactive). In addition, the GI50 with UACC-62, in the experiment on RXF 393, in the experiment with OVCAR-4, in the experiment with HT-29, in the experiment on SN12C and in the experiment with NCI-H226 was > 100 µM (inactive) in each case. Further, the GI50 with HCC 2998, in the experiment on LOX IMVI, in the experiment on NCI-H522, in the experiment with NCI/ADR-RES, with HL-60 and with A498 was > 100 µM (inactive) in each case.
